Source: BindingDB's records for doi:10.1021/np960678l (1997)

Biological target: T1, 5-hydroxytryptamine receptor 1A (Homo sapiens, UniProt P08908)
T1 sequence (P08908 whole entry): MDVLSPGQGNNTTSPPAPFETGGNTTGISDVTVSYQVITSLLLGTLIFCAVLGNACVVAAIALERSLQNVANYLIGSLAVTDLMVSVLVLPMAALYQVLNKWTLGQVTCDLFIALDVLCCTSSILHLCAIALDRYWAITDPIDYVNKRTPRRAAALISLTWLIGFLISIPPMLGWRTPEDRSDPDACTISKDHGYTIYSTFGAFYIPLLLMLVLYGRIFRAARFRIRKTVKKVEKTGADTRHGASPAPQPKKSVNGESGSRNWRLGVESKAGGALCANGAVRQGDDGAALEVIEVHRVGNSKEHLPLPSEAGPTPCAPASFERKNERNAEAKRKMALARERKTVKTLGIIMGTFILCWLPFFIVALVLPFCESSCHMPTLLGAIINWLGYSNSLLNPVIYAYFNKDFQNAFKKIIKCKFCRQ
Assay: Displacement of [3H]8-OH-DPAT from 5HT1A receptor by vacuum filtration

Ki: > 100 µM
Structure (SMILES): COc1cc(-c2oc3cc(O)cc(=O)c-3c(O)c2O[C@@H]2O[C@H](CO)[C@H](O)[C@H](O)[C@H]2O)ccc1O [isohamnetin 3-O-galactoside]
